Results published in PubChem BioAssay (NCI).
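Compound exposure: 48 hours, 5 concentrations, 96-well plates. At the GI50, growth is halved. TGI: concentration producing complete growth inhibition.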

What was measured:
Experiment in all cases: NCI-60 cell line screen, 48 h
RXF 393 renal = test system: RXF 393 renal
RPMI-8226 leukemia = test system: RPMI-8226 leukemia
OVCAR-8 ovarian = test system: OVCAR-8 ovarian
UO-31 renal = test system: UO-31 renal
A549 NSCLC = test system: A549 NSCLC
HCC-2998 colon = test system: HCC-2998 colon
UACC-62 melanoma = test system: UACC-62 melanoma
786-0 renal = test system: 786-0 renal
HCT-15 colon = test system: HCT-15 colon
COLO 205 colon = test system: COLO 205 colon

Compound	TGI (RXF 393 renal) [µM]	TGI (RPMI-8226 leukemia) [µM]	TGI (OVCAR-8 ovarian) [µM]	TGI (UO-31 renal) [µM]	TGI (A549 NSCLC) [µM]	TGI (HCC-2998 colon) [µM]	TGI (UACC-62 melanoma) [µM]	TGI (786-0 renal) [µM]	TGI (HCT-15 colon) [µM]	TGI (COLO 205 colon) [µM]	GI50 (RXF 393 renal) [µM]	GI50 (RPMI-8226 leukemia) [µM]	GI50 (OVCAR-8 ovarian) [µM]	GI50 (UO-31 renal) [µM]	GI50 (A549 NSCLC) [µM]	GI50 (HCC-2998 colon) [µM]	GI50 (UACC-62 melanoma) [µM]	GI50 (786-0 renal) [µM]	GI50 (HCT-15 colon) [µM]	GI50 (COLO 205 colon) [µM]
O=c1c2ccccc2[se]n1-c1cccnc1	69.2	86.9	69.5	93.7	> 100	33.8	37.1	87.4	52.8	45.1										
COC(=O)C12C3C4C1C1C2C3C41C(=O)OC(C)(C)C (stereo not given)	> 100	> 72.3	> 100	> 100	> 100	> 100	> 100	> 100	> 100	> 100										
COC(=O)/C=C/c1cc(O)c2oc(-c3ccc(O)c(O)c3)c(C(=O)OC)c2c1	4.84	1.75	13	10.6	14.1	11.2	5.96	16.3	11.2	23.6	0.523	0.316	0.521	1.11	1.27	2.09	0.802	3.67	0.0672	8.27
Cc1ccc(C(SCC(N)C(=O)O)(c2ccccc2)c2ccc(C)cc2)cc1 (stereo not given)	3.52	20.6	44.2	> 55	45.6	2.77	17.3	24.4	23.9	0.732	0.0957	0.135	0.433	7.96	0.466	0.236	0.119	2.21	0.367	0.241
O=C1CCCC/C(=C/c2ccccc2)N1	> 100	> 100	> 100	> 100	> 100	> 100	> 100	> 100	> 100	> 100										
COc1ccc2c(c1)C(C)Cc1c(Cl)ncnc1N2C (stereo not given)	3.83	16	25.2	42	> 100	14.3	19	5.45	> 32.3	0.777	0.42	0.629	0.463	0.364	0.432	0.402	0.445	0.309	0.402	0.261
O=C(O/N=C1/CCCC/C1=C\c1ccccc1)c1ccccc1	> 100	> 100	> 100	> 100	> 100	> 100	> 100	> 100	> 100	> 100										
CCCCc1c(OC)cc(O)c2c1C(=O)c1[nH]c(C(=O)O)c(O)c(=O)c1C2=O	8.25	> 100	28.8	13.8	> 100	> 100	6.96	63.8	> 100	64.6										
CC(C)=C[C@@H]1C[C@H](C)[C@H]2CC[C@H](C)C3=C2[C@](O)(OC3=O)[C@]1(C)O	> 100	> 100	> 100	> 100	> 100	> 100	> 100	> 100	> 100	> 100	> 100	> 100	> 100	> 100	> 100	> 100	99.8	> 100	> 100	> 100
O=C(OCc1ccc2cccc(O)c2n1)N1CCN(C(=O)c2cc3cc(F)ccc3[nH]2)CC1	2.17	0.787	2.47	1.93	3.35	3.26	2.43	2.82	1.8	2.07	0.981	0.251	1.01	0.358	1.62	1.69	1.17	1.42	0.452	0.622
C=C(F)C(=O)N1CCN(c2nc(OC[C@@H]3CCCN3C)nc3c2CCN(c2cccc4cccc(Cl)c24)C3)C[C@@H]1CC#N	2.66	3.45	1.79	2.57	2.57	2.66	3.25	2.09	2.06	1.98	1.29	1.24	0.473	1.13	0.673	1.2	1.66	0.769	0.56	0.578
